Entries after “also recorded” stand apart in the source; their conditions may differ. Residues, ends and D or L forms follow the SMILES beside them.
Experiments:
[1] = target: T1, MPO (Homo sapiens, UniProt P05164); assay: MPO-mediated LDL oxidation (conjugated diene formation, 234 nm); assay type: biochemical; set-up: purchased Lee Biosolutions (St. Louis, Mo.); conditions: for Conjugated diene formation in LDL (in words): MPO/H2O2 (300 μM)/nitrite, more than 2 hours
T1 sequence (P05164 49-745): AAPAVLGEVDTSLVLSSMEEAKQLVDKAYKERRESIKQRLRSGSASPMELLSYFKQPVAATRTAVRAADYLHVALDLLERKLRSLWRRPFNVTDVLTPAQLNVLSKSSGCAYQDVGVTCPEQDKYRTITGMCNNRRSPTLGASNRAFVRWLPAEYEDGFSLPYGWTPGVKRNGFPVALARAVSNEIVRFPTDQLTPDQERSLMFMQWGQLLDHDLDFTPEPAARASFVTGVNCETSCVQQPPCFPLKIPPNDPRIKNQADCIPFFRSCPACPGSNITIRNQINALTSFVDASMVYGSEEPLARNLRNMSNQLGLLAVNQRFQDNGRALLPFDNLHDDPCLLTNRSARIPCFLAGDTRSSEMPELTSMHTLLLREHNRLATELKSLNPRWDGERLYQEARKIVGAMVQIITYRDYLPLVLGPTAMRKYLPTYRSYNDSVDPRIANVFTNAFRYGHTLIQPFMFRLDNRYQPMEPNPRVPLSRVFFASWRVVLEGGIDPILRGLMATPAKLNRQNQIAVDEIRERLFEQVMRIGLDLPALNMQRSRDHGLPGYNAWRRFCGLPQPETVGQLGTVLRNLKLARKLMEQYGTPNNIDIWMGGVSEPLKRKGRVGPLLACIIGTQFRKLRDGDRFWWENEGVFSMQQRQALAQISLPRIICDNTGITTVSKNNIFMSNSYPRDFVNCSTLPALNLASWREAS
Procedure: MPO-mediated oxidation of LDL. […] LDL oxidation was monitored at 234 nm at room temperature on a HP UV/VIS spectrometer. Absorbance traces represent the average of duplicate experiments.
MPO-mediated LDL Oxidation. […] Rates of LDL oxidation were monitored at room temperature at 234 nm, the wavelength maximum for conjugated dienes.
MPO-mediated LDL Conjugated Diene Formation: Reaction mixtures contained LDL (0.15 mg/mL), NaNO2 (100 μM), H2O2 (100 μM), MPO (20 nM) and increasing concentrations of KYC or equimolar concentrations of various compounds in a phosphate buffer (100 mM, pH 7.4) containing DTPA (100 μM). Rates of LDL conjugated diene formation were determined by following changes in absorbance at 234 nm, the wavelength maximum for conjugated dienes, on a UV-Vis spectrophotometer (Agilent Model 8453) at room temperature.

[2] = test system: OVA-sensitized C57BL/6J mice; assay: OVA-sensitized murine model of asthma (lung histology); assay type: in vivo, mouse; conditions: KYC 0.3 mg/kg every other day, 5 treatments
Description: Murine Model of Experimentally-Induced Asthma. C57BL/6J mice (12-14 wk old) from Jackson Laboratory (Bar Harbor, Me.) were housed in sterile autoclavable microisolation cages and fed standard laboratory mouse chow and water ad libitum. All protocols were approved by the Institutional Animal Care and Use Committee (IACUC) of the Medical College of Wisconsin.
C57BL/6J mice were divided into three groups; a control group (Control), an ovalbumin (OVA)-sensitized group and an OVA-sensitized group treated with KYC. OVA sensitization was achieved using a modification of a protocol previously described by de Siqueira et al^15 (FIG. 1). […] When mice inhale aerosolized OVA, robust allergic responses are routinely observed.
Briefly, on day one, mice were anesthetized (halothane; Halocarbon Laboratories, River Edge, N.J.) and a heat-denatured OVA fragment (˜80 mg, 5×2×2 mm) was implanted subcutaneously in the dorsal aspect of the neck. The incision was closed with stainless steel clips and the mouse was allowed to recover. Implantation of the heat-denatured OVA fragment initiates sensitization. On day fifteen, the implanted mice were exposed to aerosolized OVA (6% in PBS) for 30 minutes every other day for ten days. Twenty-four hours after the last OVA challenge, the mice were deeply anesthetized (halothane), sacrificed by exsanguination and the lungs removed for analysis. […]

[3] = target: T1, MPO; assay: MPO-mediated nitration of BSA (western blot for nitrotyrosine); assay type: biochemical; set-up: purchased Lee Biosolutions (St. Louis, Mo.); conditions: for MPO-mediated BSA nitration (in words): H2O2 100 μM, nitrite 100 μM
Procedure: MPO-mediated Nitration of Bovine Serum Albumin (BSA). BSA (0.5 mg/mL) was incubated with MPO (20 nM), H2O2 (100 μM), nitrite (100 μM) and increasing concentrations of KYC in phosphate buffer (100 mM, pH 7.4) containing DTPA (100 μM) for 30 min. Reactions were stopped by addition of catalase. Nitrotyrosine formation was assessed by western blot analysis.
MPO-mediated Nitration of Bovine Serum Albumin (BSA): BSA (0.5 mg/mL) was incubated with MPO (20 nM), H2O2 (25 μM), NaNO2 (50 μM) and increasing concentrations of KYC in phosphate buffer (100 mM, pH 7.4) containing DTPA (100 μM) for 30 min. Reactions were halted by addition of catalase (2,000 units/mL). NO2Tyr formation was assessed by western blot analysis with an anti-NO2Tyr rabbit polyclonal antibody (EMD, Gibbstown, N.J.).

Conjugated diene formation in LDL (in words) ([1]; 20 μM KYC): totally suppresses
MPO/H2O2/nitrite-mediated LDL oxidation (in words) ([1]; 25 μM, H2O2 100 μM, NaNO2 100 μM): completely suppressed
Conjugated diene formation in LDL (in words) ([1]; 100 μM KYC): totally suppresses
inhibition at 12.5 µM ([3]; 12.5 μM KYC, H2O2 25 μM, NaNO2 50 μM, read-out: Inhibition of NO2Tyr formation in BSA): 50%
MPO-mediated BSA nitration (in words) ([3]; 30 μM KYC): inhibits
NO2Tyr formation in BSA (in words) ([3]; 50 μM KYC, H2O2 25 μM, NaNO2 50 μM): essentially ablated
MPO-mediated BSA nitration (in words) ([3]; 250 μM KYC): essentially ablates
Structure (SMILES): CC(=O)N[C@@H](CCCCN)C(=O)N[C@@H](Cc1ccc(O)cc1)C(=O)N[C@@H](CS)C(N)=O [KYC, N-acetyl Lysyltyrosylcysteine Amide] (Ac-Lys-Tyr-Cys-NH2)
MPO/H2O2-mediated LDL oxidation in the absence of nitrite (in words) ([1]; 25 μM, without NaNO2): inhibited; also recorded: did not increase LDL oxidation
Eosinophil infiltration in the lungs (in words) ([2]; H&E): markedly reduce eosinophil infiltration to essentially control levels
Collagen deposition in the lungs (in words) ([2]; trichrome): markedly reduces collagen deposition to control levels
